The subject of the assay is M. tuberculosis H37Rv growth inhibition with meropenem. In words: dose response, H37Rv, with and without meropenem (AID 434987).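 Note: growth over 7 days at 37 °C before Alamar Blue read on day 9.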
[1] abbreviates: M. tuberculosis H37Rv growth inhibition, measured here: IC50 without meropenem.
[2] abbreviates: M. tuberculosis H37Rv growth inhibition, measured here: IC90 without meropenem.
The mark [3] stands for this setting: measured here: IC90 with meropenem.

The IC50 is the midpoint of a concentration-inhibition curve. One may read the IC90 as the concentration at which the effect reaches the 90% level. A low value points to greater potency.

Active and inactive are the calls of the source. The rule behind the calls is not given here.

Regarding `O=C(CSc1ccc([N+](=O)[O-])cn1)Nc1ccc(N2CCOCC2)cc1`, the IC50 was 4.82 µM. Besides, the IC50 under setting [1] was 17.6 µM. Further, the 90% effect concentration (IC90) under setting [2] was greater than 100 µM. In addition, the IC90 under setting [3] was greater than 100 µM.

With `Cc1ccc2occ(/C=C/C(=O)c3ccccc3O)c(=O)c2c1`, the IC50 was 50.2 µM (inactive). Under setting [1], the IC50 was greater than 100 µM. For the same molecule, under setting [2], the IC90 was greater than 100 µM. The molecule further came in with an IC90 under setting [3] greater than 100 µM.

Take `C=C(C)C(=O)O[C@H]1C/C(C)=C\C(=O)/C=C(\C)[C@H](O)[C@@H]2OC(=O)C(=C)[C@@H]21`: the IC50 is 10.3 µM. For the same molecule, the IC50 under setting [1] worked out at 41.1 µM. Further, under setting [2], the IC90 was 56 µM. Besides, the IC90 under setting [3] was found to be 31.3 µM.

Take `CSc1ccccc1NC(=O)c1c(Br)cnn1C`: the IC50 is 28.4 µM. Moreover, under setting [1], the IC50 stood at 82.7 µM. The IC90 under setting [2] was greater than 100 µM. Under setting [3], this molecule showed an IC90 greater than 100 µM.

For the molecule `N#Cc1c(C(F)(F)F)cc(-c2ccccc2)nc1SCc1nc(N)nc(N2CCOCC2)n1`, the IC50 was > 100 µM (inactive). Also, the IC50 under setting [1] was greater than 100 µM. Under setting [2], this molecule yielded an IC90 greater than 100 µM. The molecule also registered an IC90 under setting [3] greater than 100 µM.

As for `Cc1ccc2nc(-c3ccc(NC(=S)NC(=O)C(C)C)cc3)sc2c1`, the IC50 was > 100 µM (inactive). In addition, the IC50 under setting [1] is greater than 100 µM. Under setting [2], this molecule came in with an IC90 greater than 100 µM. For the same molecule, the IC90 under setting [3] is greater than 100 µM.

As for `c1ccc2c(c1)CC1CNCc3cccc(c31)S2` (stereo not drawn), the IC50 was 47.4 µM (inactive). In addition, under setting [1], the IC50 was greater than 100 µM. Moreover, the 90% effect concentration (IC90) under setting [2] is greater than 100 µM. Besides, the IC90 under setting [3] was greater than 100 µM.

As to `CCOc1ccc(NC(=O)/C(C#N)=C/c2cn(CC(=O)O)c3ccccc23)cc1`, the IC50 was 95.9 µM (inactive). Under setting [1], this molecule displayed an IC50 greater than 100 µM. The IC90 under setting [2] is greater than 100 µM. Besides, under setting [3], the IC90 was greater than 100 µM.

For `CO/N=C(\C(=O)N[C@@H]1C(=O)N2C(C(=O)O)=C(COC(C)=O)CS[C@H]12)c1csc(N)n1` (stereo in doubt), the IC50 was 10.3 µM. The IC50 under setting [1] is greater than 100 µM. Moreover, the IC90 under setting [2] is greater than 100 µM. The IC90 under setting [3] stood at 41.7 µM.

As to `O=C(NNC(=O)c1cc(OCC(F)(F)F)ccc1OCC(F)(F)F)c1cccc(C(F)(F)F)c1`, the IC50 was > 100 µM (inactive). The molecule further showed an IC50 under setting [1] greater than 100 µM. The same molecule showed an IC90 under setting [2] greater than 100 µM. Also, under setting [3], the IC90 is greater than 100 µM.

As for `COc1ccc(/C=C/C(=O)NCC(=O)N/N=C/c2cc(Br)ccc2OCc2ccccc2)cc1`, the IC50 was > 100 µM (inactive). The same molecule yielded an IC50 under setting [1] greater than 100 µM. The molecule also displayed an IC90 under setting [2] greater than 100 µM. This molecule came in with an IC90 under setting [3] greater than 100 µM.

Regarding `CCCC(C)NC(=O)c1ccc(OCc2ccc(Cl)cc2)c(OC)c1` (stereo not drawn), the IC50 was 7.56 µM. In addition, the IC50 under setting [1] was 36.2 µM. In addition, the 90% effect concentration (IC90) under setting [2] is greater than 100 µM. In addition, the IC90 under setting [3] worked out at 11.6 µM.

Turning to `CCOc1ccc2c(c1)c(C(C)=O)c(C)n2-c1ccccc1`, the IC50 was less than 0.2 µM. This molecule also had an IC50 under setting [1] greater than 100 µM. The IC90 under setting [2] was greater than 100 µM. Further, the concentration for an effect of 90% (IC90) under setting [3] worked out at 1.96 µM.

As to `O=C(C1=C[C@H](c2ccc(Br)cc2)C[C@H](OCCCCO)O1)N1CCN(Cc2ccc3c(c2)OCO3)CC1`, the IC50 is 49.4 µM (inactive). Also, the concentration for half-maximal inhibition (IC50) under setting [1] was determined as 65.3 µM. Also, under setting [2], the IC90 amounted to 88 µM. The IC90 under setting [3] was greater than 100 µM.

With `CCc1ccc(NC(=S)Nc2ccc3[nH]c(=O)[nH]c3c2)cc1`, the IC50 was > 100 µM (inactive). Besides, the IC50 under setting [1] was greater than 100 µM. Also, the IC90 under setting [2] is greater than 100 µM. The IC90 under setting [3] was greater than 100 µM.

Regarding `Cc1ccc(-n2ncc(-c3nnc(SCC(=O)NC4CCCC4)o3)c2N)cc1C`, the IC50 was > 100 µM (inactive). This molecule showed an IC50 under setting [1] greater than 100 µM. The IC90 under setting [2] is greater than 100 µM. For the same molecule, under setting [3], the IC90 was greater than 100 µM.

With `N#CCOC(=O)/C=C/c1ccc2c(c1)OCO2`, the IC50 is 29.7 µM. This molecule had an IC50 under setting [1] greater than 100 µM. Besides, under setting [2], the IC90 is greater than 100 µM. The molecule further came in with an IC90 under setting [3] greater than 50 µM.

For `COc1ccc(C(=O)Nc2cccc3c2CCCC3)c(OC)c1`, the IC50 is 23.4 µM. The same molecule displayed an IC50 under setting [1] greater than 100 µM. For the same molecule, the IC90 under setting [2] was greater than 100 µM. The IC90 under setting [3] was greater than 100 µM.

With `COc1cc(C(=O)NC2CCCCC2)ccc1OCc1ccc(Cl)cc1Cl`, the IC50 is > 100 µM (inactive). This molecule had an IC50 under setting [1] greater than 100 µM. In addition, the IC90 under setting [2] was greater than 100 µM. This molecule also returned an IC90 under setting [3] greater than 100 µM.

In the case of `Cc1cc(NC(=O)COc2nnc(-c3ccccc3)c3ccccc23)no1`, the IC50 is 14 µM. This molecule showed an IC50 under setting [1] greater than 100 µM. This molecule registered an IC90 under setting [2] greater than 100 µM. Under setting [3], this molecule gave an IC90 greater than 25 µM.

`Cc1cc(=O)[nH]c(N/N=C/c2c(F)c(F)c(F)c(F)c2F)n1`: the IC50 is 64.6 µM (inactive). The half-maximal inhibitory concentration (IC50) under setting [1] came out at 92.1 µM. The IC90 under setting [2] was greater than 100 µM. Further, under setting [3], the IC90 stood at 82.3 µM.

On to `COC(=O)c1cccc(NC(=S)NCCC2=CCCCC2)c1`, for which the IC50 was > 100 µM (inactive). Also, the IC50 under setting [1] was greater than 100 µM. Under setting [2], the IC90 is greater than 100 µM. Also, under setting [3], the IC90 is greater than 100 µM.

(Values after PubChem BioAssay AID434987 (Southern Research Specialized Biocontainment Screening …, 2010).)
